Source: PubChem BioAssay AID248 (DTP/NCI, 2004)
Several values for one entry are separate records, joined by “and”; a condition that tells them apart may be missing. Identical values can stand only once. Toxic doses and inconclusive results are not listed. Cut-off read from the data, not from the text of the source: active = T/C of 150% or more; inactive = T/C below 125%.

System: L1210 leukemia ip in BDF1 mice, survival T/C
Test: NCI In Vivo Anticancer Drug Screen. Data for tumor model L1210 Leukemia (intraperitoneal) in B6D2F1 (BDF1) mice
Conditions: endpoint: mean survival time, higher = longer survival
Summary of the method: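 Survival endpoint. Drug-treated group vs vehicle group, expressed as T divided by C. Tumor passaged by transplantation.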

[1] = dose: 100.0 mg/kg/injection, schedule: Q01DX009 (ip), vehicle: saline with Tween-80
[2] = dose: 100.0 mg/kg/injection, schedule: Q01DX001 (ip), vehicle: saline
[3] = dose: 200.0 mg/kg/injection, schedule: Q01DX001 (ip), vehicle: saline
[4] = dose: 400.0 mg/kg/injection, schedule: Q01DX001 (ip), vehicle: saline
[5] = dose: 100.0 mg/kg/injection, schedule: Q01DX009 (ip), vehicle: Klucel (hydroxypropylcellulose) (HPC)
[6] = dose: 200.0 mg/kg/injection, schedule: Q01DX009 (ip), vehicle: Klucel (hydroxypropylcellulose) (HPC)
[7] = dose: 100.0 mg/kg/injection, schedule: Q01DX001 (ip), vehicle: other
[8] = dose: 200.0 mg/kg/injection, schedule: Q01DX001 (ip), vehicle: other
[9] = dose: 400.0 mg/kg/injection, schedule: Q01DX001 (ip), vehicle: other
[10] = dose: 400.0 mg/kg/injection, schedule: Q01DX009 (ip), vehicle: Klucel (hydroxypropylcellulose) (HPC)

Measured: T/C

O=C1Nc2ccccc2Cc2ccccc21
inactive: [1] 93 % of control | dose: 100.0 mg/kg/injection, schedule: Q04DX003 (ip), vehicle: saline with Tween-80 102 % of control | dose: 200.0 mg/kg/injection, schedule: Q01DX009 (ip), vehicle: saline with Tween-80 92 % of control | dose: 200.0 mg/kg/injection, schedule: Q04DX003 (ip), vehicle: saline with Tween-80 102 % of control | dose: 400.0 mg/kg/injection, schedule: Q04DX003 (ip), vehicle: saline with Tween-80 107 % of control

CC(C)=CCc1cc(OC(=O)OCc2ccccc2)c2ccccc2c1O
inactive: dose: 100.0 mg/kg/injection, schedule: Q01DX001 (ip), vehicle: Klucel (hydroxypropylcellulose) (HPC) 96 % of control | dose: 200.0 mg/kg/injection, schedule: Q01DX001 (ip), vehicle: Klucel (hydroxypropylcellulose) (HPC) 93 % of control | dose: 400.0 mg/kg/injection, schedule: Q01DX001 (ip), vehicle: Klucel (hydroxypropylcellulose) (HPC) 101 % of control

CC(C)(C)N1CCCC1
inactive: dose: 25.0 mg/kg/injection, schedule: Q01DX009 (ip), vehicle: saline with Tween-80 96 % of control | dose: 50.0 mg/kg/injection, schedule: Q01DX009 (ip), vehicle: saline with Tween-80 91 % of control | [1] 88 % of control

[O]=[Sn]1[O][Bi]([O][Sn](=[O])[O][Bi]2[O][Sn](=[O])[O]2)[O]1
inactive: dose: 100.0 mg/kg/injection, schedule: Q01DX009 (ip), vehicle: saline 94 % of control | dose: 200.0 mg/kg/injection, schedule: Q01DX009 (ip), vehicle: saline 94 % of control | dose: 400.0 mg/kg/injection, schedule: Q01DX009 (ip), vehicle: saline 92 % of control

Nc1nc2ncc(CN(N=O)c3ccc(C(=O)NC(CCC(=O)O)C(=O)O)cc3)nc2c(=O)[nH]1 (stereo not given)
inactive: dose: 0.62 mg/kg/injection, schedule: Q01DX009 (ip), vehicle: water 98 % of control | dose: 1.25 mg/kg/injection, schedule: Q01DX009 (ip), vehicle: water 100 % of control | dose: 2.5 mg/kg/injection, schedule: Q01DX009 (ip), vehicle: water 98 % of control | dose: 5.0 mg/kg/injection, schedule: Q01DX009 (ip), vehicle: water 96 % of control | dose: 10.0 mg/kg/injection, schedule: Q01DX009 (ip), vehicle: water 98 % of control

COCC1OC1(C(=O)c1ccccc1Cl)c1ccccc1Cl (stereo not given)
inactive: [2] 107 % of control | [3] 100 % of control | [4] 96 % of control

ClCCCCCCCCCCc1ccccc1
inactive: dose: 100.0 mg/kg/injection, schedule: Q01DX009 (ip), vehicle: saline sonified 91 % of control | dose: 100.0 mg/kg/injection, schedule: Q04DX003 (ip), vehicle: saline sonified 96 % of control | dose: 200.0 mg/kg/injection, schedule: Q01DX009 (ip), vehicle: saline sonified 93 % of control | dose: 200.0 mg/kg/injection, schedule: Q04DX003 (ip), vehicle: saline sonified 102 % of control | dose: 400.0 mg/kg/injection, schedule: Q01DX009 (ip), vehicle: saline sonified 89 % of control | dose: 400.0 mg/kg/injection, schedule: Q04DX003 (ip), vehicle: saline sonified 98 % of control

N#CCCCCCCCCC(=O)c1ccc(O)cc1O
inactive: dose: 87.5 mg/kg/injection, schedule: Q01DX009 (ip), vehicle: Klucel (hydroxypropylcellulose) (HPC) 96 % of control | dose: 175.0 mg/kg/injection, schedule: Q01DX009 (ip), vehicle: Klucel (hydroxypropylcellulose) (HPC) 100 % of control | dose: 350.0 mg/kg/injection, schedule: Q01DX009 (ip), vehicle: Klucel (hydroxypropylcellulose) (HPC) 102 % of control

COc1cccc(C2NC(=S)N3C(c4cccc(OC)c4)NC(=S)N23)c1 (stereo not given)
inactive: dose: 100.0 mg/kg/injection, schedule: Q01DX009 (ip), vehicle: gum acacia 108 % of control | dose: 100.0 mg/kg/injection, schedule: Q04DX003 (ip), vehicle: gum acacia 88 % of control | dose: 200.0 mg/kg/injection, schedule: Q01DX009 (ip), vehicle: gum acacia 99 % of control | dose: 200.0 mg/kg/injection, schedule: Q04DX003 (ip), vehicle: gum acacia 100 % of control | dose: 400.0 mg/kg/injection, schedule: Q01DX009 (ip), vehicle: gum acacia 93 % of control | dose: 400.0 mg/kg/injection, schedule: Q04DX003 (ip), vehicle: gum acacia 95 % of control

CSc1nc2ccc(S(=O)(=O)O)cc2s1
inactive: dose: 50.0 mg/kg/injection, schedule: Q01DX009 (ip), vehicle: Klucel (hydroxypropylcellulose) (HPC) 104 % of control | [5] 96 % of control | [6] 97 % of control

CCCCNC(C)[C@]1(O)Cc2c(O)c3c(c(O)c2[C@@H](OC2CC(N)C(O)C(C)O2)C1)C(=O)c1c(OC)cccc1C3=O (stereo not given in full)
inactive: dose: 1.56 mg/kg/injection, schedule: Q01DX009 (ip), vehicle: water 104 % of control | dose: 3.13 mg/kg/injection, schedule: Q01DX009 (ip), vehicle: water 119 % of control | dose: 6.25 mg/kg/injection, schedule: Q01DX009 (ip), vehicle: water 117 % of control

CC1(C)CSC(=S)N1CCC#N
inactive: dose: 75.0 mg/kg/injection, schedule: Q01DX001 (ip), vehicle: other 104 % of control

CCOC(=O)C(C)(c1c(C)n(C)c2ccccc12)c1c(C)n(C)c2ccccc12
inactive: dose: 50.0 mg/kg/injection, schedule: Q01DX001 (ip), vehicle: other 91 % of control | [7] 91 % of control | [8] 91 % of control | [9] 91 % of control

COc1ccc(NC(=O)Oc2ccc(NC(C)=O)cc2)c(OC)c1
inactive: [5] 95 % of control | [6] 97 % of control | [10] 92 % of control

COC(=O)N(C1CCCCC1)C1CCCCC1
inactive: [5] 97 % of control | [6] 96 % of control | [10] 100 % of control

C=C(COc1ccc(Cl)cc1)COc1ccc(Cl)cc1
inactive: dose: 12.5 mg/kg/injection, schedule: Q04DX002 (ip), vehicle: other 115 % of control and 117 % of control | dose: 50.0 mg/kg/injection, schedule: Q04DX003 (ip), vehicle: other 98 % of control and 107 % of control | [7] 95 % of control and 99 % of control | dose: 100.0 mg/kg/injection, schedule: Q04DX003 (ip), vehicle: other 96 % of control and 113 % of control | [8] 96 % of control and 98 % of control | dose: 200.0 mg/kg/injection, schedule: Q04DX003 (ip), vehicle: other 93 % of control and 106 % of control | [9] 91 % of control | dose: 400.0 mg/kg/injection, schedule: Q04DX003 (ip), vehicle: other 95 % of control and 113 % of control

CC(=O)NS(=O)(=O)c1ccc(C)cc1
inactive: dose: 100.0 mg/kg/injection, schedule: Q04DX003 (ip), vehicle: acetone 115 % of control | dose: 200.0 mg/kg/injection, schedule: Q04DX003 (ip), vehicle: acetone 108 % of control | dose: 400.0 mg/kg/injection, schedule: Q04DX003 (ip), vehicle: acetone 97 % of control

N=C(N)c1cccc(NC(=O)Nc2cccc(C(=N)N)c2)c1
inactive: dose: 15.0 mg/kg/injection, schedule: Q01DX Z (ip), vehicle: saline 104 % of control | dose: 30.0 mg/kg/injection, schedule: Q01DX Z (ip), vehicle: saline 104 % of control

Cc1ccccc1SCCC(=O)O
inactive: [2] 100 % of control | [5] 92 % of control | [3] 87 % of control | [6] 96 % of control | [4] 87 % of control | [10] 94 % of control

CC(C)COC(=O)CCCc1ccc(N(CCCl)CCCl)cc1
inactive: dose: 100.0 mg/kg/injection, schedule: Q04DX002 (ip), vehicle: saline 121 % of control | dose: 200.0 mg/kg/injection, schedule: Q04DX002 (ip), vehicle: saline 111 % of control
